Experimental data taken from patent US9969709B2, “Guanidinobenzoic acid ester compound” (Takeda Pharmaceutical Company Limited, priority 2013, dated 2018).
Where a name gives a salt, the structure may show the parent alone.

Legend:
[1] = target: T1, human recombinant trypsin (rh-trypsin) (Homo sapiens, UniProt P07477); assay: Trypsin inhibitory activity, human recombinant trypsin, BZiPAR fluorescent substrate; type: biochemical; conditions: 30 min at room temperature, read-out: r-h Trypsin inhibitory activity (IC50)
T1 construct: purchased Wako Pure Chemical Industries, Ltd. 206-17171
Experimental: (§1) 1. Confirmation of Trypsin Inhibitory Activity in Humans and Mice In the experiment, human recombinant trypsin (rh-trypsin; manufactured by Wako Pure Chemical Industries, Ltd.), cat. #206-17171) and mouse trypsin (m-trypsin; purified from the mouse small intestine contents by the present inventors) were used. The method for purifying m-trypsin from the contents of the mouse small intestine is shown below. The compound was dissolved in dimethyl sulfoxide (DMSO), and diluted to an arbitrary concentration (A). A was 100-fold diluted with a buffer (0.1 M Tris (pH 8.0), 0.15 M NaCl, 10 mM CaCl2, 0.05% Brij35) (B). The rh-trypsin was diluted with a buffer to 0.088 μg/mL, and for the m-trypsin, the purified fraction liquid was 50-fold diluted with the buffer (C). […] A BZiPAR solution (Rhodamine Reference Substrate) which is substrate for the trypsin enzyme was diluted with the buffer to […] (D). 5 μL of B, 5 μL of C, and 10 μL of D were added to a 384-well plate, and incubated at room temperature for 30 minutes. Fluorescent signals were detected at a maximum excitement (Ex)/fluorescent wavelength (Em)=497 nm/520 nm using a Tecan Safire Fluorometer. […] Based on the obtained inhibitory rates, the trypsin inhibitory activities (IC50 values, nM) were calculated from the non-linear regression.

[2] = system: T2, mouse trypsin (m-trypsin); assay: Trypsin inhibitory activity, mouse trypsin purified from small intestine contents, BZiPAR fluorescent substrate; type: biochemical; conditions: 30 min at room temperature
T2 construct: mouse trypsin (m-trypsin)
From the text: 1. Confirmation of Trypsin Inhibitory Activity in Humans and Mice
In the experiment, human recombinant trypsin (rh-trypsin; manufactured by Wako Pure Chemical Industries, Ltd.), cat. #206-17171) and mouse trypsin (m-trypsin; purified from the mouse small intestine contents by the present inventors) were used. The method for purifying m-trypsin from the contents of the mouse small intestine is shown below.
The small intestine contents and the gastrointestinal tract obtained from 10 mice were homogenized in phosphate buffer saline (PBS) using Polytron, and subjected to centrifugation several times at 15,000×g for 10 minutes. The supernatant was mixed at 4° C. for 16 hours with a Benzamidine Sepharose 4 Fast Flow Resin (GE Healthcare: #17-5123-10). After washing the resin with PBS, m-trypsin was eluted with a glycine buffer (pH 3.0) to carry out purification. It was confirmed by Western blot analysis that the obtained purified fraction was recognized as an Anti-mouse Trypsin Antibody (Santa Cruz Biotechnology, Inc.: sc-67388). The method for measuring the trypsin inhibiting activity is shown below.
as §1, with “The” for “1. Confirmation of Trypsin Inhibitory Activity in Humans and Mice In the experiment, human recombinant trypsin (rh-trypsin; manufactured by Wako Pure Chemical Industries, Ltd.), cat. #206-17171) and mouse trypsin (m-trypsin; purified from the mouse small intestine contents by the present inventors) were used. The method for purifying m-trypsin from the contents of the mouse small intestine is shown below. The”

[3] = system: ICR mice; assay: Test of increase in fecal protein concentration using mice; type: in vivo, mouse; conditions: Mus musculus, po, 9 h, 5 mg/kg oral, male ICR mice, feces collected 3 to 9 hours after feeding started, control group = 1; read-out: Fecal protein, Folds (vs. control)
Experimental: 2. Test of Increase in Fecal Protein Concentration Using Mice
For the experiment, 6-week old male ICR mice were used. The experiment was carried out in five mice per group. After fasting the mice for 15 hours, the control group was forcibly orally administered with a 0.5% methyl cellulose (MC) solution, and the test drug group was forcibly orally administered (5 mg/kg) with a solution or suspension obtained by dissolving or suspending the compound in the 0.5% MC solution. The fasting was stopped immediately thereafter, free feeding (CE-2) was started, and then the feces were collected from after 3 hours to after 9 hours, and weighed. All of the obtained feces were suspended in 6 mL of distilled water, and centrifuged at 1,940×g for 10 minutes. The protein concentration in the obtained supernatant was measured by a Bradford method, and the amount of the protein in 1 g of feces was calculated by dividing the protein concentration in the feces by the total weight of feces. Further, the efficacy was investigated from the ratio to the control group. For the compounds that were evaluated multiple times, the average values were calculated.
The results of the activities with an increase in Fecal Protein, assuming a value for the control group as 1, are shown in Table 2.

Compound	IC50 [1]	IC50 [2]	response vs control in vivo at 5 mg/kg [3]
N=C(N)Nc1ccc(C(=O)Oc2ccc3c(C(=O)N[C@@H](Cc4ccc(C(=O)O)cc4)C(=O)O)csc3c2)cc1 [Example 47]	260 pM	290 pM	191%
N=C(N)Nc1ccc(C(=O)Oc2ccc3c(c2)CCC3CC(=O)N(CC(=O)O)[C@@H](Cc2ccccc2)C(=O)O)cc1 (stereo partly shown) [Example 46]	250 pM	230 pM	184%
N=C(N)Nc1ccc(C(=O)Oc2ccc3c(c2)CCC(C(=O)N(CC(=O)O)Cc2csc(C(=O)O)c2)C3)cc1 (stereo not shown) [Example 4, 4-{[({6-[(4-carbamimidamidobenzoyl)oxy]-1,2,3,4-tetrahydronaphthalen-2-yl}carbonyl)(carboxymethyl)amino]methyl}thiophene-2-carboxylic acid monohydrochloride]	430 pM	610 pM	262%
N=C(N)Nc1ccc(C(=O)Oc2ccc3c(c2)CCC(C(=O)N(CC(=O)O)Cc2ccc(CC(=O)O)cc2)C3)cc1 (stereo not shown) [Example 20]	470 pM	770 pM	223%
N=C(N)Nc1ccc(C(=O)Oc2ccc3c(c2)CCC3CC(=O)N(CC(=O)O)Cc2ccc3sc(C(=O)O)cc3c2)cc1 (stereo not shown) [Example 51]	340 pM	380 pM	166%
N=C(N)Nc1ccc(C(=O)Oc2ccc3cc(C(=O)N(CC(=O)O)Cc4ccc5sc(C(=O)O)cc5c4)ccc3c2)cc1 [Example 33]	180 pM	160 pM	139%
N=C(N)Nc1ccc(C(=O)Oc2ccc3c(C(=O)N(CC(=O)O)Cc4cccc(C(=O)O)c4)csc3c2)cc1 [Example 60]	330 pM	310 pM	226%
N=C(N)Nc1ccc(C(=O)Oc2ccc3c(C(=O)N(CC(=O)O)Cc4ccc(CC(=O)O)cc4)csc3c2)cc1 [Example 23]	460 pM	460 pM	253%
N=C(N)Nc1ccc(C(=O)Oc2ccc3c(c2)CCCC3CC(=O)N(CC(=O)O)Cc2ccc3sc(C(=O)O)cc3c2)cc1 (stereo not shown) [Example 25]	280 pM	350 pM	135%
N=C(N)Nc1ccc(C(=O)Oc2ccc3c(c2)CCCC3CC(=O)N[C@@H](Cc2ccc(C(=O)O)cc2)C(=O)O)cc1 (stereo partly shown) [Example 36]	260 pM	280 pM	190%
N=C(N)Nc1ccc(C(=O)Oc2ccc3c(c2)CCCC3CC(=O)N(CC(=O)O)Cc2csc(CC(=O)O)c2)cc1 (stereo not shown) [Example 38]	260 pM	230 pM	191%
N=C(N)Nc1ccc(C(=O)Oc2ccc3c(C(=O)N(CC(=O)O)Cc4ccc5sc(C(=O)O)cc5c4)cccc3c2)cc1 [Example 34]	210 pM	170 pM	207%
N=C(N)Nc1ccc(C(=O)Oc2ccc3c(C(=O)N(CC(=O)O)Cc4ccc(CC(=O)O)cc4)cccc3c2)cc1 [Example 17]	220 pM	270 pM	270%
C[C@H](C(=O)O)N(Cc1csc(C(=O)O)c1)C(=O)CC1CCc2cc(OC(=O)c3ccc(NC(=N)N)cc3)ccc21 (stereo partly shown) [Example 48]	360 pM	440 pM	179%
N=C(N)Nc1ccc(C(=O)Oc2ccc3cc(C(=O)N(CC(=O)O)Cc4cccc(C(=O)O)c4)ccc3c2)cc1 [Example 14]	230 pM	260 pM	179%
N=C(N)Nc1ccc(C(=O)Oc2ccc3c(C(=O)N(CC(=O)O)Cc4cccc(C(=O)O)c4)cccc3c2)cc1 [Example 15]	100 pM	180 pM	261%
C[C@H](C(=O)O)N(Cc1csc(C(=O)O)c1)C(=O)CC1CCCc2cc(OC(=O)c3ccc(NC(=N)N)cc3)ccc21 (stereo partly shown) [Example 19]	390 pM	600 pM	251%
N=C(N)Nc1ccc(C(=O)Oc2ccc3c(c2)CCC3CC(=O)N(CC(=O)O)Cc2ccc(CC(=O)O)cc2)cc1 (stereo not shown) [Example 52]	430 pM	550 pM	178%
N=C(N)Nc1ccc(C(=O)Oc2ccc3c(c2)CCC3CC(=O)N(CCC(=O)O)Cc2csc(C(=O)O)c2)cc1 (stereo not shown) [Example 50]	280 pM	430 pM	156%
N=C(N)Nc1ccc(C(=O)Oc2ccc3cc(C(=O)N(CC(=O)O)Cc4csc(C(=O)O)c4)ccc3c2)cc1 [Example 1, 4-{[{6-[(4-carbamimidamidobenzoyl)oxy]-2-naphthoyl}(carboxymethyl)amino]methyl}thiophene-2-carboxylic acid monohydrochloride]	310 pM	410 pM	200%
N=C(N)Nc1ccc(C(=O)Oc2ccc3cc(C(=O)N(CC(=O)O)[C@@H](Cc4ccccc4)C(=O)O)ccc3c2)cc1 [Example 39]	180 pM	130 pM	108%
N=C(N)Nc1ccc(C(=O)Oc2ccc3c(c2)CCC(C(=O)N(CC(=O)O)[C@@H](Cc2ccccc2)C(=O)O)C3)cc1 (stereo partly shown) [Example 31]	230 pM	220 pM	151%
N=C(N)Nc1ccc(C(=O)Oc2ccc3c(c2)CCCC3CC(=O)N(CC(=O)O)Cc2ccc(CC(=O)O)cc2)cc1 (stereo not shown) [Example 26]	330 pM	340 pM	170%
N=C(N)Nc1ccc(C(=O)Oc2ccc3c(C(=O)N(CCC(=O)O)Cc4csc(C(=O)O)c4)csc3c2)cc1 [Example 54]	290 pM	460 pM	170%
N=C(N)Nc1ccc(C(=O)Oc2ccc3cc(C(=O)N(CC(=O)O)Cc4ccc(CC(=O)O)cc4)ccc3c2)cc1 [Example 16]	140 pM	240 pM	239%
N=C(N)Nc1ccc(C(=O)Oc2ccc3c(c2)CCCC3CC(=O)N(CC(=O)O)[C@@H](Cc2ccccc2)C(=O)O)cc1 (stereo partly shown) [Example 22]	340 pM	440 pM	215%
C[C@H](C(=O)O)N(Cc1csc(C(=O)O)c1)C(=O)c1cccc2cc(OC(=O)c3ccc(NC(=N)N)cc3)ccc12 [Example 18]	290 pM	480 pM	218%
N=C(N)Nc1ccc(C(=O)Oc2ccc3cc(C(=O)N(CC(=O)O)Cc4csc(C(=O)O)c4)sc3c2)cc1 [Example 59]	710 pM	870 pM	164%
N=C(N)Nc1ccc(C(=O)Oc2ccc3c(CC(=O)N(CC(=O)O)Cc4cccc(C(=O)O)c4)coc3c2)cc1 [Example 12]	1500 pM	1700 pM	–
N=C(N)Nc1ccc(C(=O)Oc2ccc3c(c2)OCC3CC(=O)N(CC(=O)O)Cc2cccc(C(=O)O)c2)cc1 (stereo not shown) [Example 10]	1200 pM	1400 pM	–
